Experimental data published in ChEMBL document CHEMBL1143711, “Design, synthesis, and evaluation of potent, structurally novel peroxisome proliferator-activated receptor (PPAR) delta-selective agonists” (Bioorg Med Chem, 2007).

Experiments:
[1] = molecular target: T1, Peroxisome proliferator-activated receptor gamma (Homo sapiens, UniProt P37231); format: cell-based, HEK293
T1 sequence (P37231 whole entry): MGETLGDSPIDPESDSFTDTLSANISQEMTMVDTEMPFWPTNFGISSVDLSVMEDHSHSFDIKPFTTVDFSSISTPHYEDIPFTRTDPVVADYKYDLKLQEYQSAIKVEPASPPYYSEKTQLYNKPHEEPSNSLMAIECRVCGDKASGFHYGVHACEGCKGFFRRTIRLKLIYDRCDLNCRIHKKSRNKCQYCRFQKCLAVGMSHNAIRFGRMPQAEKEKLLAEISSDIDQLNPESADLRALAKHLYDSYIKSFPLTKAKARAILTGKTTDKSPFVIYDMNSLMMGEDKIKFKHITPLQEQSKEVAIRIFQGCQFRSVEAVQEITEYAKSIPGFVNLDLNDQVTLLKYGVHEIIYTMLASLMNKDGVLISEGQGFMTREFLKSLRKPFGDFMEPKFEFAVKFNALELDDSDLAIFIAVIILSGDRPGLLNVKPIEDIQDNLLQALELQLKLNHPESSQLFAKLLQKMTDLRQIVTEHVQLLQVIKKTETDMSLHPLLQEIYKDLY

[2] = molecular target: T2, Peroxisome proliferator-activated receptor alpha (Homo sapiens, UniProt Q07869); assay: Effect on PPARalpha transactivation activity in HEK293 cells; format: cell-based
T2 sequence (Q07869 whole entry): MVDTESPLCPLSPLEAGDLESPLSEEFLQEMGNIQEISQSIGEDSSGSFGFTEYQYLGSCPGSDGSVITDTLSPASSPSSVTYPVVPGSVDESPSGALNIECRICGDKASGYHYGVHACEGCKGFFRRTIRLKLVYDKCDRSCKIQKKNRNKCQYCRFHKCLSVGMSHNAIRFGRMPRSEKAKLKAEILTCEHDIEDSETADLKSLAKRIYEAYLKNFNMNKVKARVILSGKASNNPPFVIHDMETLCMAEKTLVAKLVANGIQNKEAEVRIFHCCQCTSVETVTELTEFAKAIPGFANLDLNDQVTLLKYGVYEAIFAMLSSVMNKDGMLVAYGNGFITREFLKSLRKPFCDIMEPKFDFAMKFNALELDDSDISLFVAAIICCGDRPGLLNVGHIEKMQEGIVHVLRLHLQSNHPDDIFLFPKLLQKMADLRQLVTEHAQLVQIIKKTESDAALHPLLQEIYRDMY

[3] = molecular target: T3, Peroxisome proliferator-activated receptor delta (Homo sapiens, UniProt Q03181)
T3 sequence (Q03181 whole entry): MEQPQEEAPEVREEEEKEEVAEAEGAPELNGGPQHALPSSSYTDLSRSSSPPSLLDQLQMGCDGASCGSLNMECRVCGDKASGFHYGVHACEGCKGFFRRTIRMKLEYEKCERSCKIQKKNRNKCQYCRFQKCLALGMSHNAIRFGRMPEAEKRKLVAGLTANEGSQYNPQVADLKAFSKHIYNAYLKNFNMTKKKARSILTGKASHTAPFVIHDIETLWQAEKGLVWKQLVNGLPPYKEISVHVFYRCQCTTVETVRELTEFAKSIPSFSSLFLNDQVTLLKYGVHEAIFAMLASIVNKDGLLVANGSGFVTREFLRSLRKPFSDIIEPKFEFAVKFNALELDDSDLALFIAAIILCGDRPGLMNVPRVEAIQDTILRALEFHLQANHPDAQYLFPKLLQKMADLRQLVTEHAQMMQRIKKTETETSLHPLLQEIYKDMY

| EC50 [1] [µM] | EC50 [2] [µM] | Structure (SMILES) | EC50 [3] [µM] |
| --- | --- | --- | --- |
| > 10 | – | COc1ccc(CC(C)C(=O)O)cc1CNC(=O)c1ccc(C(F)(F)F)cc1 (stereo not given) | – |
| – | > 10 | CCC(Cc1ccc(OCc2ccccc2)c(CNC(=O)c2ccc(C(F)(F)F)cc2)c1)C(=O)O (stereo not given) | – |
| > 10 | – | COc1ccc(CCC(=O)O)cc1CNC(=O)c1ccc(C(F)(F)F)cc1 | – |

| Structure (SMILES) | EC50 [1] [µM] | EC50 [2] [µM] | EC50 [3] [µM] |
| --- | --- | --- | --- |
| CCCCOc1ccc(C[C@@H](CC)C(=O)O)cc1CNC(=O)c1ccc(C(F)(F)F)cc1F | 7 | – | 0.0083 |
